# Measured values from patent EP4461294A1, “LIPOLYTIC AND ANTIADIPOGENIC COUMARIN DERIVATIVES” (Karl-Franzens-Universität Graz, priority 2023, dated 2024).
# What was measured:
# Type in all cases: cell-based
# C/EBPδ [1] = test: Western blot, protein expression of C/EBPδ in 3T3-L1 cells; conditions: 10 pg/ml each
# Procedure: (§1) 3T3-L1 preadipocytes were cultured in DMEM (D5796, high glucose) supplemented with 10% FBS, penicillin, and streptomycin at 37 °C in 5% CO2 atmosphere and 80% humidity. For long-term experiments, cells were seeded onto 6-well plates and grown to confluence. Adipogenesis was induced 48 h post confluence (day 0) by addition of culture medium containing […], […] dexamethasone, and 500 µM 3-isobutyl-1-methylxan-thine (IBMX). Experiments were performed in the absence and presence of increasing concentrations of ethanolic citrus extracts (total peel, flavedo and albedo layers) or commercially available citropten, bergamottin and 5-geranyloxy-7-methox-ycoumarin. Ethanol (0.1%) served as vehicle. At days 3 and 5, medium was replaced by fresh medium supplemented with 10 pg/ml and 0.2 ug/ml insulin, respectively, with and without compounds. At day 7, adipogenesis was terminated by harvest of cells. In a short-term approach, differentiation was performed for 24 h. […]
# (§2) Lysates were denaturated by boiling with 5-fold Laemmli buffer for 10 min at 95 °C. […] After incubation of membranes with respective horseradish peroxidase-conjugated IgGs immunoreactive bands were visualized using Western Bright™ ECL or Western Bright™ Quantum substrates (Biozym, Austria) and chemiluminescence was quantified with the Fusion SL Imaging System (VWR International GmbH).
# C/EBPδ [2] = test: Dual luciferase reporter assay, transcriptional activity of C/EBPδ in HEK293 cells; conditions: 10 µg/ml, 24 h
# Procedure: Transcriptional activities of C/EBPβ and C/EBP6 were measured using the C/EBP Cignal™ Reporter Assay (CCS-001L; dual luc) from Qiagen (Germany) and the Dual-Luciferase® Reporter Assay System (E1910; Promega Corporation, Germany) as recently described (Mussbacher et al., 2019, Sci Rep, 9(1), 15403. https://doi.org/10.1038/s41598-019-51579-x). pcDNA-mC/EBPβ (Addgene plasmid # 49198) and pcDNA-mC/EBP6 (Addgene plasmid #12559) were gifts from Jed Friedman and Peter Johnson, respectively. At 80-90% confluence, HEK293 cells were co-transfected with C/EBPβ or C/EBPδ DNA (1 µg each) and Cignal Reporter (0,5 µg) in serum- and antibiotic-free medium using TurboFect™ Transfection Reagent (ThermoFisher Scientific). Cells were incubated for 24 h in the absence and presence of citropten, bergamottin or 5-geranyloxy-7-methoxycoumarin. Thereafter, cells were harvested and lysed according to the manufacturer's instructions. Activities of firefly luciferase and Renilla luciferase were sequentially measured as biolumi-nescence using the GloMax Discover System GM3000 (Promega) as described. Luminescence of each sample was normalized to Renilla luciferase activity.
# PPARγ = test: Western blot, protein expression of PPARγ during adipogenesis of 3T3-L1 cells; conditions: adipogenesis terminated at day 7, increasing concentrations
# Procedure: as §1, §2
# [3] = tested on: acetyl-CoA carboxylase (ACC); test: Western blot, expression and phosphorylation of ACC, short-term experiments in 3T3-L1 cells
# Procedure: as §1, §2
# C/EBPβ [4] = test: Western blot, protein expression of C/EBPβ (isoforms LAP*, LAP, LIP) in 3T3-L1 cells; conditions: for protein expression of C/EBPβ (isoforms LAP*, LAP and LIP): 10 µg/ml each
# Procedure: 3T3-L1 preadipocytes were cultured in DMEM (D5796, high glucose) supplemented with 10% FBS, penicillin, and streptomycin at 37 °C in 5% CO2 atmosphere and 80% humidity. For long-term experiments, cells were seeded onto 6-well plates and grown to confluence. Adipogenesis was induced 48 h post confluence (day 0) by addition of culture medium containing […], 0.4 pg/ml dexamethasone, and 500 µM 3-isobutyl-1-methylxan-thine (IBMX). Experiments were performed in the absence and presence of increasing concentrations of ethanolic citrus extracts (total peel, flavedo and albedo layers) or commercially available citropten, bergamottin and 5-geranyloxy-7-methox-ycoumarin. Ethanol (0.1%) served as vehicle. At days 3 and 5, medium was replaced by fresh medium supplemented with 10 pg/ml and 0.2 ug/ml insulin, respectively, with and without compounds. At day 7, adipogenesis was terminated by harvest of cells. In a short-term approach, differentiation was performed for 24 h. Cells were harvested by treatment with RIPA buffer (#R0278, Sigma) containing EDTA (2 mM) and cOmplete Protease Inhibitor Cocktail (total volume of 150 µl per well) and scraped off mechanically. Cell suspensions were transferred to Eppendorf vials, homogenized by repeated sonication, and kept on ice for 10 min. Aliquots were stored at 4 °C for measurement of triglycerides (TGs) and total cellular protein content. For Western blot experiments homogenates were stored at -80 °C.
# Lysates were denaturated by boiling with 5-fold Laemmli buffer for 10 min at 95 °C. Samples containing 15 µg of protein were separated by SDS-PAGE on 8-12% gels for 45 min at 180 V. Thereafter, proteins were transferred onto nitrocellulose membranes for 90 min (240 mA). After blocking with Tris-buffered saline containing 0.1% (v/v) Tween-20 and 5% non-fat dry milk for 1 h (ambient temperature) membranes were incubated overnight at 4 °C with primary antibodies. After incubation of membranes with respective horseradish peroxidase-conjugated IgGs immunoreactive bands were visualized using Western Bright™ ECL or Western Bright™ Quantum substrates (Biozym, Austria) and chemiluminescence was quantified with the Fusion SL Imaging System (VWR International GmbH).
# C/EBPβ [5] = test: Dual luciferase reporter assay, transcriptional activity of C/EBPβ in HEK293 cells; conditions: 24 h; for transcriptional activity of C/EBPβ: 10 µg/ml
# Procedure: At 80-90% confluence, HEK293 cells were co-transfected with C/EBPβ or C/EBPδ DNA (1 µg each) and Cignal Reporter (0,5 µg) in serum- and antibiotic-free medium using TurboFect™ Transfection Reagent (ThermoFisher Scientific). Cells were incubated for 24 h in the absence and presence of citropten, bergamottin or 5-geranyloxy-7-methoxycoumarin. Thereafter, cells were harvested and lysed according to the manufacturer's instructions. Activities of firefly luciferase and Renilla luciferase were sequentially measured as biolumi-nescence using the GloMax Discover System GM3000 (Promega) as described. Luminescence of each sample was normalized to Renilla luciferase activity.
# C/EBPα = test: Western blot, protein expression of C/EBPα during adipogenesis of 3T3-L1 cells; conditions: adipogenesis terminated at day 7, increasing concentrations
# Procedure: as §1, §2
# AMPK = test: Western blot, expression and phosphorylation of AMPK, short-term experiments in 3T3-L1 cells; conditions: 10 µg/ml, short-term (24 h), compared to controls
# Procedure: as §1, §2
# mature 3T3-L1 cells [6] = test: Forskolin-stimulated lipolysis, release of free fatty acids into the medium; conditions: for forskolin-induced lipolysis: 3 h
# Procedure: (§3) 3T3-L1 preadipocytes were seeded onto 6-well plates and cultured in DMEM (D5796; high glucose) supplemented with 10% fetal bovine serum, penicillin, and streptomycin at 37 °C in 5% CO2 atmosphere and 80% humidity. Differentiation of cells were performed for 10 days as described in 2.4. Mature adipocytes were washed twice in low glucose containing DMEM (D4947). Lipolysis was induced by addition of the adenylyl cyclase activator forskolin (10 µM) and cells were incubated in medium containing 2% fatty acid-free BSA for up to 6 h in the absence and presence of coumarins. In basal lipolysis experiments, forskolin was excluded. Aliquots of the medium were collected and release of free fatty acids (FFAs) was measured using the NEFA Assay Kit from FUJIFILM Wako Chemicals Europe GmbH (Neuss, Germany) (ASC-ACOD method) according to the manufacturer's instructions.
# mature 3T3-L1 cells [7] = test: Basal lipolysis, release of free fatty acids into the medium (forskolin excluded); set-up: dose or concentration left out as unconfirmed; conditions: without forskolin, 3 h
# Procedure: as §3
Structure (SMILES),protein expression of C/EBP6 (C/EBPδ [1]),transcriptional activity of C/EBP6 (C/EBPδ-dependent transcriptional activity) (C/EBPδ [2]),protein expression of PPARγ (PPARγ),"protein expression of C/EBPβ (isoforms LAP*, LAP and LIP) (C/EBPβ [4])",transcriptional activity of C/EBPβ (C/EBPβ [5]),protein expression of C/EBPα (C/EBPα),phosphorylation of AMPK at Thr172 (AMPK),forskolin-induced lipolysis (mature 3T3-L1 cells [6]; 56 µM (10 µg/ml)),further results
"COc1cc(OC/C=C(\C)CCC=C(C)C)c2ccc(=O)oc2c1 [5-geranyloxy-7-methoxycoumarin, 5-[(2E)-3,7-dimethylocta-2,6-dienoxy]-7-methoxychromen-2-one]",not affected,tendency to decrease,concentration-dependently suppressed,not affected,not affected,concentration-dependently suppressed,more than doubled,–,"transcriptional activity of C/EBP6 (C/EBPδ-dependent transcriptional activity) (C/EBPδ [2]; listed as 5-geranyloxy-7-methoxy-coumarin): not affected; fold induction at 10 µg/mL ([3]; Mus musculus, 3T3-L1, short-term (24 h), compared to controls, read-out: phosphorylation of acetyl-CoA carboxylase (ACC) at Ser79): ~3"
"CC(C)=CCC/C(C)=C/COc1c2ccoc2cc2oc(=O)ccc12 [bergamottin, 4-[(2E)-3,7-dimethylocta-2,6-dienoxy]furo[3,2-g]chromen-7-one]",not affected,not affected,concentration-dependently suppressed,not affected,not affected,concentration-dependently suppressed,significantly increased,–,"phosphorylation of ACC (Ser79) ([3]; 10 µg/ml, short-term experiments, p<0.05 vs vehicle-treated cells): significantly increased; forskolin-induced lipolysis (mature 3T3-L1 cells [6]; 30 µM (10 µg/ml)): did not significantly enhance"
"COc1cc(OC)c2ccc(=O)oc2c1 [citropten, 5,7-dimethoxy-2H-chromen-2-one]",–,–,–,–,–,–,–,–,"forskolin-induced lipolysis (mature 3T3-L1 cells [6]; 10 pg/ml (≈ 48 µM)): significant effect; activity at 120 µM (mature 3T3-L1 cells [6]; Mus musculus, 3T3-L1, 25 µg/ml (≈ 120 µM), 3-4 h after induction of lipolysis, read-out: effect on forskolin-stimulated lipolysis (release of FFAs), maximal): 185 to 190%; forskolin-stimulated lipolysis (mature 3T3-L1 cells [6]; forskolin 10 µM, time- and concentration-dependent manner): enhanced; release of FFAs (mature 3T3-L1 cells [6]; forskolin-stimulated, 25 µg/ml (≈ 120 µM), within 0.5 and 6 h): significantly increased; expression of LIP (C/EBPβ [4]; 25 µg/ml, p<0.05 vs vehicle-treated cells): significantly upregulated; protein expression of C/EBPβ (C/EBPβ [4]; citropten 25 µg/ml): increased; activity of C/EBPβ (C/EBPβ [5]; citropten 25 µg/ml): increased; basal release of FFAs (mature 3T3-L1 cells [7]): increased"
"O=c1ccc2cc(O)c(O)cc2o1 [esculetin, 6,7-dihydroxy-2H-chromen-2-one]",–,–,–,–,–,–,–,did not significantly enhance,–
"COc1ccc2ccc(=O)oc2c1 [herniarin, 7-methoxy-2H-chromen-2-one]",–,–,–,–,–,–,–,–,forskolin-induced lipolysis (mature 3T3-L1 cells [6]; 141 µM (25 µg/ml)): did not significantly enhance
"COc1cc2oc(=O)ccc2cc1O [isoscopoletin, 6-hydroxy-7-methoxy-2H-chromen-2-one]",–,–,–,–,–,–,–,did not significantly enhance,–
